Columns and labels:
[1] = target: Estrogen receptor (Homo sapiens) (UniProt Q92731+P03372)
Description: Estrogen receptor (ER) binding affinity

MCF7 = assay: cells; conditions: Homo sapiens
Description: Growth response in cultures of MCF-7 (human breast cancer cell line) cells

Structure (SMILES)	Ka [1] [M⁻¹]	EC50 (MCF7) [nM]
C[C@]12CC[C@@H]3c4cccc(N)c4CCC3[C@@H]1CC[C@@H]2O (single isomer, unassigned)	2.15e+07	2
C[C@]12CC[C@@H]3c4ccc(O)cc4[C@@H](O)CC3[C@@H]1CC[C@@H]2O (single isomer, unassigned)	8.88e+07	0.186
C[C@]12CC[C@@H]3c4cccc(O)c4CCC3[C@@H]1CC[C@@H]2O (single isomer, unassigned)	2.5e+08	4.76
C[C@]12CC[C@@H]3c4cc([N+](=O)[O-])c(O)cc4CCC3[C@@H]1CC[C@@H]2O (single isomer, unassigned)	3.7e+06	33.5
C[C@]12CC[C@@H]3c4cc(N)ccc4CCC3[C@@H]1CC[C@@H]2O (single isomer, unassigned)	1.45e+08	0.127
C[C@]12CC[C@H](O)C[C@@H]1CCC1[C@@H]2CC[C@]2(C)[C@@H](O)CC[C@@H]12 (single isomer, unassigned) [ANDROSTANEDIOL]	1.8e+07	4.66
C[C@]12CC(=O)[C@@H]3c4ccc(O)cc4CCC3[C@@H]1CC[C@@H]2O (single isomer, unassigned)	3.33e+06	8.97
C[C@]12CCc3c(ccc4cc(O)ccc34)[C@@H]1CC[C@@H]2O	1.52e+09	0.0125
C[C@]12CC[C@@H]3c4cc(O)ccc4CCC3[C@@H]1CC[C@@H]2O (single isomer, unassigned)	2.6e+09	0.033
C[C@]12CC[C@@H]3c4ccccc4CCC3[C@@H]1CC[C@@H]2O (single isomer, unassigned)	4.1e+08	0.316
C[C@]12CC[C@@H]3c4ccc(O)c(N)c4CCC3[C@@H]1CC[C@@H]2O (single isomer, unassigned)	2.11e+08	0.346
C[C@]12CC[C@@H]3c4cc([N+](=O)[O-])ccc4CCC3[C@@H]1CC[C@@H]2O (single isomer, unassigned)	< 1.85e+06	29.3
C[C@]12CC[C@H]3C(=CCc4cc(O)ccc43)[C@@H]1CC[C@@H]2O	–	0.00154
C[C@@]12CCC[C@H]1C1CCc3cc(O)ccc3[C@H]1CC2 (single isomer, unassigned)	2.93e+09	0.118
C[C@]12CC[C@@H]3c4ccc(O)cc4CCC3[C@@H]1C[C@@H](O)C2 (single isomer, unassigned)	2.97e+09	0.237
C[C@]12CC[C@@H]3c4ccc(O)cc4C[C@H](O)C3[C@@H]1CC[C@@H]2O (single isomer, unassigned)	3.66e+09	0.0122
C[C@]12CC[C@@H]3c4cccc(I)c4CCC3[C@@H]1CC[C@@H]2O (single isomer, unassigned)	4.44e+06	1.67
C[C@]12CC[C@@H]3c4ccc(O)c([N+](=O)[O-])c4CCC3[C@@H]1CC[C@@H]2O (single isomer, unassigned)	1.44e+08	0.9
C[C@]12CC[C@@H]3c4ccc(O)cc4C=C[C@@H]3[C@@H]1CC[C@@H]2O	–	0.00419

Structure (SMILES)	Ka [1] [M⁻¹]	EC50 (MCF7) [nM]
C[C@]12CC[C@@H]3c4ccc(O)cc4CC(=O)C3[C@@H]1CC[C@@H]2O (single isomer, unassigned)	3.39e+09	0.016
C[C@@]12CCC[C@H]1C1CCc3ccccc3[C@H]1CC2 (single isomer, unassigned)	< 1.8e+06	201
C[C@]12C[C@H](O)[C@@H]3c4ccc(O)cc4CCC3[C@@H]1CC[C@@H]2O (single isomer, unassigned)	6.22e+07	0.0163
C[C@]12CC[C@@H]3c4ccc(O)cc4C(=O)CC3[C@@H]1CC[C@@H]2O (single isomer, unassigned)	1.09e+09	0.00338
C[C@]12CC[C@@H]3c4ccc(O)cc4[C@H](O)CC3[C@@H]1CC[C@@H]2O (single isomer, unassigned)	7e+07	0.0571
C[C@]12CC[C@@H]3c4ccc([N+](=O)[O-])cc4CCC3[C@@H]1CC[C@@H]2O (single isomer, unassigned)	7.77e+06	2.16
C[C@]12CC[C@@H]3c4c(cccc4[N+](=O)[O-])CCC3[C@@H]1CC[C@@H]2O (single isomer, unassigned)	< 1.85e+06	60.4
C[C@]12CC[C@H]3[C@H](CC=C4C[C@@H](O)CC[C@@]43C)[C@@H]1CC[C@@H]2O	2.7e+07	1.41
C[C@]12CC[C@@H]3c4ccc(O)cc4C[C@@H](O)C3[C@@H]1CC[C@@H]2O (single isomer, unassigned)	6.3e+07	0.153
C[C@]12CC[C@@H]3c4cc(I)ccc4CCC3[C@@H]1CC[C@@H]2O (single isomer, unassigned)	3.33e+06	1.7
C[C@]12CC[C@@H]3c4c(O)cccc4CCC3[C@@H]1CC[C@@H]2O (single isomer, unassigned)	1.8e+07	1.59
C[C@]12CC[C@@H]3c4cccc([N+](=O)[O-])c4CCC3[C@@H]1CC[C@@H]2O (single isomer, unassigned)	< 1.85e+06	34.2
C[C@]12CC[C@@H]3c4ccc(O)cc4CCC3[C@@H]1C[C@@H](O)[C@@H]2O (single isomer, unassigned) [ESTRIOL]	–	0.0483
C[C@]12CC[C@@H]3c4ccc(I)cc4CCC3[C@@H]1CC[C@@H]2O (single isomer, unassigned)	1.96e+07	0.174
C[C@]12CC[C@@H]3c4c(N)cccc4CCC3[C@@H]1CC[C@@H]2O (single isomer, unassigned)	< 1.85e+06	28.4
C[C@]12C[C@@H](O)[C@@H]3c4ccc(O)cc4CCC3[C@@H]1CC[C@@H]2O (single isomer, unassigned)	1.15e+07	0.0365
C[C@]12CC[C@@H]3c4ccc(N)cc4CCC3[C@@H]1CC[C@@H]2O (single isomer, unassigned)	2.78e+11	1.5
C[C@]12CC[C@@H]3c4cc(N)c(O)cc4CCC3[C@@H]1CC[C@@H]2O (single isomer, unassigned)	1.33e+08	0.558
C[C@]12CC[C@@H](O)C[C@@H]1CCC1[C@@H]2CC[C@]2(C)[C@@H](O)CC[C@@H]12 (single isomer, unassigned) [ANDROSTANDIOL]	< 1.85e+06	> 10000
